According to patent US12690608B2, “Arecoline salt and preparation method and product thereof” (priority 2020, dated 2026):

Key:
[1] = Surface temperature of heating element while heating the heat-not-burn cigarette (infrared thermal imager)
Procedure: The heat-not-burn cigarette prepared by the above preparation method is heated by an aerosol generation apparatus (by means of resistance heating), and surface temperature of a heating element in a working state is tested by an infrared thermal imager.

smokers = test: Comparison test on puff experience (scores by multiple smokers); format: in vivo; details: same content (3%)
From the text: An arecoline salt and an arecoline hydrobromide of the same content (3%) are selected for puff experience tests, and scores are given from 0 to 5 in terms of pleasure, increased heart rate, ruddy face, body fever, slight sweating and so on by evaluation of multiple smokers.

[2] = Comparison test on atomization (smoking machine, Cambridge filter, conversion rate k); format: physicochemical; details: concentrations 1-15%
[3] = Physicochemical analysis: appearance on standing at room temperature; details: salt prepared at molar ratio of arecoline to benzoic acid of 1; viscous yellow oily substance

Structure (SMILES): COC(=O)C1=CCCN(C)C1.O=C(O)c1ccccc1 [arecoline salt, benzoate of arecoline]
- Temperature at which the arecoline salt in the cigarette can be atomized ([1]; in heat-not-burn cigarette, generates a smokable aerosol): 150-250 °C
- Puff duration (temperature) 1 s ([1]; surface temperature of heating element, resistance heating, heat-not-burn cigarette containing arecoline salt, puff duration 1 s): 153.1 °C
- Puff duration (temperature) 2 s ([1]; surface temperature of heating element, resistance heating, heat-not-burn cigarette containing arecoline salt, puff duration 2 s): 228.3 °C
- Puff duration (temperature) 3 s ([1]; surface temperature of heating element, resistance heating, heat-not-burn cigarette containing arecoline salt, puff duration 3 s): 241.1 °C
- Puff experience compared with arecoline hydrobromide (pleasure, increased heart rate, ruddy face, body fever, slight sweating) (smokers): obviously superior to the arecoline hydrobromide
- Conversion rate compared with arecoline hydrobromide [2]: obviously higher than that of the arecoline hydrobromide
- Change of appearance when placed at room temperature [3]: darkens slowly when placed at room temperature
